Test results: US20160038468A1 (priority 2013, published 2016)
Like-named read-outs stand apart in the source and are kept apart here.

Key:
[1] = system: Mobiluncus all species; assay: Agar dilution MIC (CLSI), Mobiluncus all species; assay type: cell-based
[2] = system: M. curtisii; assay: Agar dilution MIC (CLSI), M. curtisii vaginal isolates; assay type: cell-based; conditions: 14 samples
[3] = system: Mobiluncus spp; assay: Agar dilution MIC (CLSI), Mobiluncus spp vaginal isolate; assay type: cell-based; conditions: read-out: Minimal Inhibitory Concentration (MIC)
[4] = system: Prevotella amnii; assay: Agar dilution MIC (CLSI), Prevotella amnii vaginal isolates; assay type: cell-based; conditions: for MIC: read-out: Minimal Inhibitory Concentration (MIC)
[5] = system: Prevotella bivia; assay: Agar dilution MIC (CLSI), Prevotella bivia vaginal isolates; assay type: cell-based; conditions: for Number of strains with indicated MIC: 34 samples; for MIC: read-out: Minimal Inhibitory Concentration (MIC)
[6] = system: Finegoldia magna; assay: Agar dilution MIC (CLSI), Finegoldia magna vaginal isolates; assay type: cell-based; conditions: for MIC: read-out: Minimal Inhibitory Concentration (MIC)
[7] = system: B. fragilis, ATCC 25285; conditions: agar dilution testing, from CLSI Table 5; cited from earlier work
[8] = system: B. thetaiotaomicron, ATCC 29741; conditions: agar dilution testing, from CLSI Table 5; cited from earlier work
[9] = number (%) of isolates, # tested 40
[10] = number (%) of isolates, # tested 20

Cc1ncc([N+](=O)[O-])n1CCO [Metronidazole]
0.5 to 2 µg/mL: Acceptable Range of MIC for control strain [8]
4 µg/mL: MIC ([5]; Prevotella bivia, isolate 601096 25) | MIC ([5]; Prevotella bivia, isolate 601203 5) | MIC ([5]; Prevotella bivia, isolate 601209 A1) | MIC ([5]; Prevotella bivia, isolate 601212 9) | MIC ([5]; Prevotella bivia, isolate 601241 13) | MIC ([5]; Prevotella bivia, isolate 601255 10) | MIC ([5]; Prevotella bivia, isolate 601261 C) | MIC ([5]; Prevotella bivia, isolate 601285 14) | MIC ([5]; Prevotella bivia, isolate 601340 31) | MIC ([5]; Prevotella bivia, isolate 601388 T) | MIC ([5]; Prevotella bivia, isolate 601389 10) | MIC ([5]; Prevotella bivia, isolate 601389 J) | MIC ([5]; Prevotella bivia, isolate 601392 14) | MIC ([5]; Prevotella bivia, isolate 601409 V) | MIC ([5]; Prevotella bivia, isolate 601410 12) | MIC ([6]; Finegoldia magna, isolate 601205V 39) | MIC ([6]; Finegoldia magna, isolate 601275V c) | MIC ([6]; Finegoldia magna, isolate 601315V 17) | MIC ([6]; Finegoldia magna, isolate 601315V 17A) | MIC ([6]; Finegoldia magna, isolate 601320V 24) | MIC ([6]; Finegoldia magna, isolate 601330V c) | MIC ([6]; Finegoldia magna, isolate 601340V 27) | MIC ([6]; Finegoldia magna, isolate 601359V c) | MIC ([6]; Finegoldia magna, isolate 601367V c) | MIC90 ([6]; Finegoldia magna, # tested 20)
1 µg/mL: MIC ([4]; Prevotella amnii, isolate 601203 4) | MIC ([4]; Prevotella amnii, isolate 601256 11) | MIC ([4]; Prevotella amnii, isolate 601261 E) | MIC ([4]; Prevotella amnii, isolate 601278 10) | MIC ([4]; Prevotella amnii, isolate 601291 41) | MIC ([4]; Prevotella amnii, isolate 601293 29) | MIC ([4]; Prevotella amnii, isolate 601318 G) | MIC ([4]; Prevotella amnii, isolate 601336 33) | MIC ([4]; Prevotella amnii, isolate 601341 H) | MIC ([4]; Prevotella amnii, isolate 601375 L) | MIC ([4]; Prevotella amnii, isolate 601377 9) | MIC ([4]; Prevotella amnii, isolate 601379 24) | MIC ([4]; Prevotella amnii, isolate 601388 G) | MIC ([4]; Prevotella amnii, isolate 601399 10) | MIC ([4]; Prevotella amnii, isolate 601405 A) | MIC ([4]; Prevotella amnii, isolate 601411 L) | MIC ([4]; Prevotella amnii, isolate 601413 10) | MIC ([4]; Prevotella amnii, isolate 601418 27) | MIC ([4]; Prevotella amnii, isolate 601426 A) | MIC ([4]; Prevotella amnii, isolate 601430 14) | MIC ([4]; Prevotella amnii, isolate 601458 13) | MIC50 ([4]; Prevotella amnii, # tested 33) | MIC ([6]; Finegoldia magna, isolate 601295V 25) | MIC ([6]; Finegoldia magna, isolate 601335V c1) | MIC ([6]; Finegoldia magna, isolate 601363V 6)
substantially less active: activity on Mobiluncus species [1]
20 (100) μg/ml: Susceptible [6, 10]
4 to 16 µg/mL: MIC Range ([5]; # tested 34)
3: Number of strains with indicated MIC ([2]; MIC 64 μg/ml)
0.25 to 2 µg/mL: MIC Range ([4]; # tested 33)
16 µg/mL: MIC ([5]; Prevotella bivia, isolate 601166 M) | MIC ([5]; Prevotella bivia, isolate 601202 21) | MIC ([5]; Prevotella bivia, isolate 601213 9A) | MIC ([5]; Prevotella bivia, isolate 601214 B) | MIC ([5]; Prevotella bivia, isolate 601243 15) | MIC ([5]; Prevotella bivia, isolate 601283 20) | MIC ([5]; Prevotella bivia, isolate 601305 H) | MIC ([5]; Prevotella bivia, isolate 601374 A1) | MIC ([5]; Prevotella bivia, isolate 601378 B) | MIC ([5]; Prevotella bivia, isolate 601379 19) | MIC ([5]; Prevotella bivia, isolate 601449 E) | MIC ([5]; Prevotella bivia, isolate 601455 D1) | MIC ([5]; Prevotella bivia, isolate 601458 16) | MIC90 ([5]; Prevotella bivia, # tested 34)
0.25 to 1 µg/mL: Acceptable Range of MIC for control strain [7]
8 µg/mL: MIC50 ([1]; # tested 40) | MIC ([5]; Prevotella bivia, isolate 601293 22) | MIC ([5]; Prevotella bivia, isolate 601355 B) | MIC ([5]; Prevotella bivia, isolate 601367 M) | MIC ([5]; Prevotella bivia, isolate 601429 1) | MIC ([5]; Prevotella bivia, isolate 601433 19) | MIC ([5]; Prevotella bivia, isolate 601453 A) | MIC50 ([5]; Prevotella bivia, # tested 34)
1 (3) μg/ml: Intermediate [1, 9]
22 (55) μg/ml: Susceptible [1, 9]
0.03 µg/mL: MIC [3]
0 µg/mL: Intermediate [6, 10]
11: Number of strains with indicated MIC ([2]; MIC >[…])
0.5 to 4 µg/mL: MIC Range ([6]; # tested 20)
13: Number of strains with indicated MIC ([5]; MIC 16 μg/ml)
6: Number of strains with indicated MIC ([5]; MIC 8 μg/ml)
0.5 µg/mL: MIC ([4]; Prevotella amnii, isolate 601258 25) | MIC ([4]; Prevotella amnii, isolate 601266 20) | MIC ([4]; Prevotella amnii, isolate 601287 HH) | MIC ([4]; Prevotella amnii, isolate 601311 K) | MIC ([4]; Prevotella amnii, isolate 601350 A) | MIC ([4]; Prevotella amnii, isolate 601368 24) | MIC ([4]; Prevotella amnii, isolate 601434 13) | MIC ([6]; Finegoldia magna, isolate 301303V D) | MIC ([6]; Finegoldia magna, isolate 601323V K)
2 µg/mL: MIC ([4]; Prevotella amnii, isolate 601305 A) | MIC ([4]; Prevotella amnii, isolate 601314 19) | MIC ([4]; Prevotella amnii, isolate 601340 37) | MIC ([4]; Prevotella amnii, isolate 601369 13) | MIC90 ([4]; Prevotella amnii, # tested 33) | MIC ([6]; Finegoldia magna, isolate 601214V F) | MIC ([6]; Finegoldia magna, isolate 601276V 23) | MIC ([6]; Finegoldia magna, isolate 601283V 14) | MIC ([6]; Finegoldia magna, isolate 601293V 27) | MIC ([6]; Finegoldia magna, isolate 601298V 30) | MIC ([6]; Finegoldia magna, isolate 601308V 24) | MIC50 ([6]; Finegoldia magna, # tested 20)
21 (62) μg/ml: Susceptible ([5]; number (%) of isolates, # tested 34)
1: Number of strains with indicated MIC ([4]; MIC […], 33 samples)
0.25 µg/mL: MIC ([4]; Prevotella amnii, isolate 601365 6)
> 128 µg/mL: MIC90 ([1]; # tested 40)
15: Number of strains with indicated MIC ([5]; MIC […] μg/ml)
17 (42) μg/ml: Resistant ([1]; number (%) of isolates, # tested 40, resistance: rifaximin >32, metronidazole >32, clindamycin >8 μg/ml)
